What was measured:
in vitro = conditions: blood
[1] = Demeule et al., 2008; cited from earlier work

Compound | half-life (in vitro) [h] | Kin (cerebral transfer coefficient) [1] [mL/s/g]
CSCC[C@@H]1NC(=O)[C@H](N)CSSC[C@@H](C(=O)O)NC(=O)CNC(=O)[C@H](CCCNC(=N)N)NC(=O)[C@H](CC(C)C)NC(=O)[C@H](CCCNC(=N)N)NC(=O)[C@@H]2CCCN2C1=O [SEQ ID NO: 17] | 3 | –
transferrin [Tf] | – | 0.0003

— patent US8877716B2, “Peptide derivatives, preparation and uses thereof” (Vect-Horus, priority 2010, dated 2014)
